{"source": "ChEMBL document CHEMBL1157124", "about": "“Synthesis and anticancer evaluation of alpha-lipoic acid derivatives” (Bioorg Med Chem Lett, 2010)", "key": {"CCRF S-180 [1]": {"test_system": "CCRF S-180", "assay": "Antitumor activity against mouse S180 cells xenografted in ICR mouse assessed as reduction of tumor weight at 100 mg/kg, ig administered 2 days after tumor inoculation qd for 7 days", "assay_type": "functional", "settings": "route intragastric"}, "CCRF S-180 [2]": {"test_system": "CCRF S-180", "assay": "Antitumor activity against mouse S180 cells xenografted in ICR mouse assessed as reduction of tumor weight at 200 mg/kg, ig administered 2 days after tumor inoculation qd for 7 days", "assay_type": "functional", "settings": "route intragastric"}, "DU-145": {"test_system": "DU-145", "assay": "Cytotoxicity against human DU145 cells", "assay_type": "functional, cell-based"}, "NCI-H460 [3]": {"test_system": "NCI-H460", "assay": "Cytotoxicity against human NCI-H460 cells assessed as growth inhibition at 0.1 ug/ml after 24 hrs by MTT assay", "assay_type": "functional", "settings": "NCI-H460, 24 h, read-out: GI"}, "[4]": {"assay": "Cytotoxicity against human HO8910 cells assessed as growth inhibition at 100 ug/ml after 24 hrs by MTT assay", "assay_type": "functional", "settings": "HO-8910, 24 h, read-out: GI"}, "[5]": {"assay": "Cytotoxicity against human HO8910 cells assessed as growth inhibition at 10 ug/ml after 24 hrs by MTT assay", "assay_type": "functional", "settings": "HO-8910, 24 h, read-out: GI"}, "[6]": {"assay": "Cytotoxicity against human HO8910 cells assessed as growth inhibition at 1 ug/ml after 24 hrs by MTT assay", "assay_type": "functional", "settings": "HO-8910, 24 h, read-out: GI"}, "[7]": {"assay": "Cytotoxicity against human HO8910 cells assessed as growth inhibition at 0.1 ug/ml after 24 hrs by MTT assay", "assay_type": "functional", "settings": "HO-8910, 24 h, read-out: GI"}, "KB [8]": {"test_system": "KB", "assay": "Cytotoxicity against human KB cells assessed as growth inhibition at 100 ug/ml after 24 hrs by MTT assay", "assay_type": "functional", "settings": "read-out: GI"}, "KB [9]": {"test_system": "KB", "assay": "Cytotoxicity against human KB cells assessed as growth inhibition at 10 ug/ml after 24 hrs by MTT assay", "assay_type": "functional", "settings": "read-out: GI"}, "KB [10]": {"test_system": "KB", "assay": "Cytotoxicity against human KB cells assessed as growth inhibition at 1 ug/ml after 24 hrs by MTT assay", "assay_type": "functional", "settings": "read-out: GI"}, "KB [11]": {"test_system": "KB", "assay": "Cytotoxicity against human KB cells assessed as growth inhibition at 0.1 ug/ml after 24 hrs by MTT assay", "assay_type": "functional", "settings": "read-out: GI"}, "Bel-7402 [12]": {"test_system": "Bel-7402", "assay": "Cytotoxicity against human Bel7402 cells assessed as growth inhibition at 100 ug/ml after 24 hrs by MTT assay", "assay_type": "functional", "settings": "Bel-7402, 24 h, read-out: GI"}, "Bel-7402 [13]": {"test_system": "Bel-7402", "assay": "Cytotoxicity against human Bel7402 cells assessed as growth inhibition at 10 ug/ml after 24 hrs by MTT assay", "assay_type": "functional", "settings": "Bel-7402, 24 h, read-out: GI"}, "Bel-7402 [14]": {"test_system": "Bel-7402", "assay": "Cytotoxicity against human Bel7402 cells assessed as growth inhibition at 1 ug/ml after 24 hrs by MTT assay", "assay_type": "functional", "settings": "Bel-7402, 24 h, read-out: GI"}, "PC-3 [15]": {"test_system": "PC-3", "assay": "Cytotoxicity against human PC3 cells assessed as growth inhibition at 100 ug/ml after 24 hrs by MTT assay", "assay_type": "functional", "settings": "PC-3, 24 h, read-out: GI"}, "PC-3 [16]": {"test_system": "PC-3", "assay": "Cytotoxicity against human PC3 cells assessed as growth inhibition at 10 ug/ml after 24 hrs by MTT assay", "assay_type": "functional", "settings": "PC-3, 24 h, read-out: GI"}, "PC-3 [17]": {"test_system": "PC-3", "assay": "Cytotoxicity against human PC3 cells assessed as growth inhibition at 1 ug/ml after 24 hrs by MTT assay", "assay_type": "functional", "settings": "PC-3, 24 h, read-out: GI"}, "PC-3 [18]": {"test_system": "PC-3", "assay": "Cytotoxicity against human PC3 cells assessed as growth inhibition at 0.1 ug/ml after 24 hrs by MTT assay", "assay_type": "functional", "settings": "PC-3, 24 h, read-out: GI"}, "NCI-H460 [19]": {"test_system": "NCI-H460", "assay": "Cytotoxicity against human NCI-H460 cells assessed as growth inhibition at 100 ug/ml after 24 hrs by MTT assay", "assay_type": "functional", "settings": "NCI-H460, 24 h, read-out: GI"}, "NCI-H460 [20]": {"test_system": "NCI-H460", "assay": "Cytotoxicity against human NCI-H460 cells assessed as growth inhibition at 10 ug/ml after 24 hrs by MTT assay", "assay_type": "functional", "settings": "NCI-H460, 24 h, read-out: GI"}, "NCI-H460 [21]": {"test_system": "NCI-H460", "assay": "Cytotoxicity against human NCI-H460 cells assessed as growth inhibition at 1 ug/ml after 24 hrs by MTT assay", "assay_type": "functional", "settings": "NCI-H460, 24 h, read-out: GI"}, "CCRF S-180 [22]": {"test_system": "CCRF S-180", "assay": "animal or person", "settings": "Mus musculus, CCRF S-180, po, read-out: INH", "description": "Antitumor activity against mouse S180 cells xenografted in ICR mouse assessed as inhibition of tumor weight at 100 mg/kg, ig administered 2 days after tumor inoculation qd for 7 days relative to control"}}}
{"smiles": "O=C(CCCCCCC(=O)Nc1ccccc1)NO", "note": "[VORINOSTAT]", "values": [{"measurement": "Activity", "setting": "CCRF S-180 [1]", "value": 1.61, "unit": "g"}, {"measurement": "Activity", "setting": "CCRF S-180 [2]", "value": 1.53, "unit": "g"}]}
{"smiles": "CS/C=C\\C(=O)SCCC(CCCCC(=O)OCCN(C)C)SC(=O)/C=C\\SC", "note": "(stereo not given)", "values": [{"measurement": "IC50", "setting": "DU-145", "value": 50, "unit": "µM"}]}
{"smiles": "CSCCCC(=O)SCCC(CCCCC(=O)OCCN(C)C)SC(=O)CCCSC", "note": "(stereo not given)", "values": [{"measurement": "IC50", "setting": "DU-145", "value": 240, "unit": "µM"}]}
{"smiles": "O=C(CCCCC1CCSS1)Nc1ccc(OC(F)(F)F)cc1", "note": "(stereo not given)", "values": [{"measurement": "inhibition of growth at 0.1 µg/mL", "setting": "NCI-H460 [3]", "value": 7.05, "unit": "%"}, {"measurement": "inhibition of growth at 100 µg/mL", "setting": "[4]", "value": 84.5, "unit": "%"}, {"measurement": "inhibition of growth at 10 µg/mL", "setting": "[5]", "value": 8.57, "unit": "%"}, {"measurement": "inhibition of growth at 1 µg/mL", "setting": "[6]", "value": 10, "unit": "%"}, {"measurement": "inhibition of growth at 0.1 µg/mL", "setting": "[7]", "value": 5.53, "unit": "%"}, {"measurement": "inhibition of growth at 100 µg/mL", "setting": "KB [8]", "value": 90.1, "unit": "%"}, {"measurement": "inhibition of growth at 10 µg/mL", "setting": "KB [9]", "value": 8.49, "unit": "%"}, {"measurement": "inhibition of growth at 1 µg/mL", "setting": "KB [10]", "value": 1.54, "unit": "%"}, {"measurement": "inhibition of growth at 0.1 µg/mL", "setting": "KB [11]", "value": 1.97, "unit": "%"}, {"measurement": "inhibition of growth at 100 µg/mL", "setting": "Bel-7402 [12]", "value": 78.4, "unit": "%"}, {"measurement": "inhibition of growth at 10 µg/mL", "setting": "Bel-7402 [13]", "value": 1.24, "unit": "%"}, {"measurement": "inhibition of growth at 1 µg/mL", "setting": "Bel-7402 [14]", "value": 0.29, "unit": "%"}, {"measurement": "inhibition of growth at 100 µg/mL", "setting": "PC-3 [15]", "value": 88.5, "unit": "%"}, {"measurement": "inhibition of growth at 10 µg/mL", "setting": "PC-3 [16]", "value": 38.2, "unit": "%"}, {"measurement": "inhibition of growth at 1 µg/mL", "setting": "PC-3 [17]", "value": 10.8, "unit": "%"}, {"measurement": "inhibition of growth at 0.1 µg/mL", "setting": "PC-3 [18]", "value": 6.69, "unit": "%"}, {"measurement": "inhibition of growth at 100 µg/mL", "setting": "NCI-H460 [19]", "value": 83, "unit": "%"}, {"measurement": "inhibition of growth at 10 µg/mL", "setting": "NCI-H460 [20]", "value": 20.3, "unit": "%"}, {"measurement": "inhibition of growth at 1 µg/mL", "setting": "NCI-H460 [21]", "value": 12.2, "unit": "%"}]}
{"smiles": "O=P1(N(CCCl)CCCl)NCCCO1", "note": "(stereo not given) [CYCLOPHOSPHAMIDE ANHYDROUS]", "values": [{"measurement": "Activity", "setting": "CCRF S-180 [1]", "value": 0.39, "unit": "g"}, {"measurement": "inhibition in vivo at 100 mg/kg", "setting": "CCRF S-180 [22]", "value": 74.5, "unit": "%"}]}
